Where two headings read alike, the source gives them in different places.
Experiments:
Ljungan-like virus = assay: Immunohistochemistry for LV VP1 antigen in pancreas tissue of treated DP-BB rats (Example 1); assay type: in vivo, rat; details: for Non-infected (number of animals, viral antigen in pancreas by IHC) / Infected (number of animals, viral antigen in pancreas by IHC): Pleconaril 100 mg/kg, Efavirenz 30 mg/kg daily from 45 to 60 days of age; for Non-infected (number of animals, viral antigen in pancreas by IHC): control 0 of 9 non-infected; for Infected (number of animals, viral antigen in pancreas by IHC): control 9 of 9 infected; for effect on clearing the infection (in words): pancreas tissue following treatment
Description: DP-BB rats were obtained from the breeding colony maintained at the Karolinska Institute (Solna, Sweden). The animals were housed under Specific Pathogen Free conditions in a temperature- and humidity-controlled room with 12 hour light dark cycles. They were fed R36 diet and water ad libitum. Animals of both genders were used. The overall incidence of diabetes among the DP rats used in the colony study is 100% with 60 days as the mean age of onset.
Antiviral agents (pleconaril and efavirenz) were administered to the animals in a dose of 100 mg/kg and 30 mg/kg body weight for Pleconaril and Efavirenz, respectively. Treatment was given daily using formulation containing the vehicle 0.4% (v/v) Tween 80+2% (v/v) glycerol+15% (w/v) Hydroxypropyl-beta-cyclodextrin.
Four experimental treatment groups consisted of six rats given pleconaril, six given Efavirenz, eight given a combination of both compounds, and nine given the vehicle solution and serving as a control. All four groups began treatment at 45 days of age and treatment was maintained until 60 days of age when animals were sacrificed.
Formalin fixed paraffin embedded pancreas tissue were analyzed by immunohistochemistry. The tissues were fixed in 4% formalin and embedded in paraffin as described previously with minor modifications (Shi et al., 1991), (Shi, 1997). Presence of LV specific antigen was visualized using a polyclonal recombinant LV VP1 raised in rabbits (Tolf, 2008). As control we used serum from a rabbit immunized using the same protocol but with the carrier GST protein only. Tissues from LV-infected and non-infected animals were included as controls. The specificity of the rabbit antibodies were verified by analyzing control specimens generated by mixing infected tissue culture cells with non-infected cells followed by formalin fixation and paraffin imbedding. The specificity of the reaction was also confirmed by blocking the signal with LV antigen in parallel with control antigen.
Pancreas tissue was also analysed using the PCR assay described by Donoso Mantke and co-workers (Donoso Mantke et al., 2007).

DP BB rats = details: group B, Pleconaril alone 100 mg/kg BW once daily for 30 days, previously reported (Niklasson et al., 2016), control 59 (7), cited from earlier work

Row | SMILES | Non-infected (number of animals, viral antigen in pancreas by IHC) (Ljungan-like virus) | Infected (number of animals, viral antigen in pancreas by IHC) (Ljungan-like virus) | effect on clearing the infection (in words) (Ljungan-like virus) | Mean diab onset day (SD) (DP BB rats; listed as Plec) | Mean diab onset day (SD) (DP BB rats)
1 | O=C1Nc2ccc(Cl)cc2[C@@](C#CC2CC2)(C(F)(F)F)O1 [Efavirenz, (4S)-6-chloro-4-(2-cyclopropylethynyl)-4-(trifluoromethyl)-1H-3,1-benz-oxazin-2-one] | 0 | 6 | essentially no effect | – | –
2 | Cc1cc(CCCOc2c(C)cc(-c3noc(C(F)(F)F)n3)cc2C)on1 [Pleconaril, 3-[3,5-dimethyl-4-[3-(3-methylisoxazol-5-yl)propoxy]phenyl]-5-(trifluoro-methyl)-1,2,4-oxadiazole] | 2 | 4 | only a modest effect on clearing the infection | 62 (8) day | 62 (SD 8) day
